“Also recorded” adds a separate entry of the source. Where a SMILES comes first, the peptide text is derived from it.
Experiments:
mouse Fzd-1 = biological target: T1, mouse Fzd-1 (Mus musculus, UniProt O70421); assay: Antagonism of Wnt3a activation of mouse Fzd-1 (data not shown); format: cell-based
T1 construct: expressed in transfected cells
Description: (§1) In FIG. 3, Panel E, the efficacy of UM206 to block the Wnt3a-induced activation of luciferase activity in HEK293 superTOPflash cells transfected with different Fzds is shown.

hFzd-4 = biological target: T2, hFzd-4 (Homo sapiens, UniProt Q9ULV1); assay: Luciferase activity in HEK293 superTOPflash cells overexpressing hFzd-4; format: cell-based; conditions: 1.10^−8 M
T2 construct: expressed in transfected cells; host or cells: HEK293 superTOPflash, transient, pcDNA3.1/hygro
T2 sequence (Q9ULV1 37-537): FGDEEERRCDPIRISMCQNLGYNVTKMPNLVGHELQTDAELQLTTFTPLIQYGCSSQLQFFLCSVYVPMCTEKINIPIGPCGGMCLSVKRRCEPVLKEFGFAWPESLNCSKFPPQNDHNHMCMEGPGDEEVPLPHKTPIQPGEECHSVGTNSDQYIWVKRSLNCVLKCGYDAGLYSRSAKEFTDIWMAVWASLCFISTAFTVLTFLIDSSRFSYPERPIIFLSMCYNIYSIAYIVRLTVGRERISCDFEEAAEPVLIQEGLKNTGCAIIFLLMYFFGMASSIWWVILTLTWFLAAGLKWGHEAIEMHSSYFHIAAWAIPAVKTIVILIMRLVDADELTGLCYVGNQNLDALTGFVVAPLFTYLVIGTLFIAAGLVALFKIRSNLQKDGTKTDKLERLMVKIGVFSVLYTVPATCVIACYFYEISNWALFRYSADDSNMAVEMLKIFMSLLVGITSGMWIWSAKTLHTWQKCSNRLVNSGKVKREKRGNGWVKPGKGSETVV
Method: as §1
(§2) The cell lines were cultured in 75 cm^2 culture flasks (Corning, Schiphol, the Netherlands) in Dulbeco's modified essential medium with L-glutamine (2 mM), 10% fetal calf serum (Invitrogen, Merelbeke, Belgium), and 1% gentamycin (Sigma-Aldrich, Zwijndrecht, The Netherlands). Before starting the experiment, the cell lines were treated with plasmocin 25 μg/ml (Invivogen, Toulose, France) and tested with a mycoalert mycoplasma detection kit (Lonza, Rockland Me., USA). Cells were transiently transfected with Fugene6 (Roche, Indianapolis Ind., USA) with plasmid DNA, pcDNA3.1/hygro (Invitrogen) with frizzled-1/2/4 or Wnts 3a-5a or with pcDNA3.0 (Invitrogen) containing the β-catenin or frizzled-5 sequence. After transfection, the cells were cultured for 24 hours in conditioned medium, collected from the cultured L-cells, L-cells with Wnt3a or 5a (Invitrogen). At the same moment the antagonist was added.

small intestine = assay: qPCR of Wnt target genes in small intestine after long-term UM206 administration; format: in vivo, mice; parameters: key to Rel. exp. Col I: expression normalized to cyclophilin housekeeping gene; key to Rel. exp. Inos / Rel. exp. CD 44 / Rel. exp. Axin 2 / Rel. exp. Itm 2A / Rel. exp. Mmp 2 / Rel. exp. Ascl 2 / Rel. exp. Dvl 2: relative expression, cyclophilin as housekeeping gene
Description: This was confirmed by histological analysis of the infarct area.
RNA was isolated using the Trizol method (Invitrogen). For the RT-PCR, the RNA was transcribed to cDNA with iscript™ cDNA synthesis kit (Bio-Rad, Hercules Calif., USA), Syber green (Eurogentec, Ghent, Belgium) was used for the detection of cDNA levels and cyclophilin served as the house keeping gene. In Supplementary methods panel 5, the primer sequences are shown.

Pharmacokinetics in rats = format: in vivo
[1] = test system: C-FIT cells (cardiac fibroblasts immortalized with telomerase); assay: Migration (wound/scratch) assay with C-FIT cells overexpressing Fzd-1 or -2; format: cell-based, rat
Method: For this assay, we used rat cardiac fibroblasts, which were immortalized with telomerase, the C-FIT cell line. This cell line was characterized previously and resembles features of primary cardiac fibroblasts. C-FIT cells were plated, treated when they were 70% confluent and a wound was made with a pipette tip at the moment of 100% confluence.
This assay was first tested with the natural ligand Wnt3a, in combination with frizzled-1 and -2 overexpression. […] Next step was to see whether the antagonist could counteract this. (See FIG. 4.)
Day 1: • Plate cells in 12-well plates
Day 2: • Transfection (see protocol)
Day 3: • Addition of conditioned medium
Day 4: • Make a scratch. This is time point zero.
Making pictures every six hours and analyzing the scratch width.
Cells were plated on day 0, and cultured until 70% confluence before transfection or treatment. Migration assays started 48 hours after transfection and/or treatment. The time point where the scratch was made, is indicated as 0 hours. Scratch width was measured at this time point, and also after 6, 12, and 24 hours.

frizzled-2 (rFzd-2) = biological target: T3, frizzled-2 (rFzd-2) (Rattus norvegicus, UniProt Q08464); assay: Activity assay: Wnt3a-induced luciferase (superTOPflash) in HEK cells transfected with frizzled-2; format: cell-based
T3 construct: expressed in transfected cells; host or cells: HEK293 superTOPflash (human embryonic kidney), transient, pcDNA3.1/hygro
Method: Human embryonic kidney (HEK) cells were used for screening. These cells have a luciferase construct stably transfected into the genome (see FIG. 2A), such that when the frizzled receptor is activated and β-catenin is increased, the luciferase is activated by transcription and light can be measured.
The peptides were tested by transfecting the frizzled-1 or the frizzled-2 receptor and addition of UM206(S-S) to the cell culture. For testing antagonistic activity, UM206 was added and the natural ligand Wnt3a was added, which is a natural stimulus for the canonical pathway.
Day 2: Transfection 12-well plates • heat Fugene6 and DNA 15 minutes at RT • 2 ml serum-free medium in tube • add 3μl fugene • add 2 μg DNA • incubate 30 minutes at RT • wash with PBS • add 50 μtransfectiemix • add 1 ml antibiotica-free medium
Day 3: Add conditioned medium or UM206
Day 4: Luciferase activity measurements • remove medium • wash with PBS • add 500 μl ⅕ lysisbuffer • shake for 60 minutes • centrifuge in tube • 20 μl lysaat and 50 μl luciferase in new tube for measurement • vortex • measure
To determine the inhibitory constant of UM206-8, HEK293-superTOPflash cells were transfected with either rFzd-1 or -2 and incubated with Wnt3a (10^−9M) in the presence of increasing concentrations of either of the peptides (FIG. 15). For UM206, a biphasic inhibition curve was observed that was best fitted with a two-binding-state model.
as §2

T3 sequence (Q08464 29-570): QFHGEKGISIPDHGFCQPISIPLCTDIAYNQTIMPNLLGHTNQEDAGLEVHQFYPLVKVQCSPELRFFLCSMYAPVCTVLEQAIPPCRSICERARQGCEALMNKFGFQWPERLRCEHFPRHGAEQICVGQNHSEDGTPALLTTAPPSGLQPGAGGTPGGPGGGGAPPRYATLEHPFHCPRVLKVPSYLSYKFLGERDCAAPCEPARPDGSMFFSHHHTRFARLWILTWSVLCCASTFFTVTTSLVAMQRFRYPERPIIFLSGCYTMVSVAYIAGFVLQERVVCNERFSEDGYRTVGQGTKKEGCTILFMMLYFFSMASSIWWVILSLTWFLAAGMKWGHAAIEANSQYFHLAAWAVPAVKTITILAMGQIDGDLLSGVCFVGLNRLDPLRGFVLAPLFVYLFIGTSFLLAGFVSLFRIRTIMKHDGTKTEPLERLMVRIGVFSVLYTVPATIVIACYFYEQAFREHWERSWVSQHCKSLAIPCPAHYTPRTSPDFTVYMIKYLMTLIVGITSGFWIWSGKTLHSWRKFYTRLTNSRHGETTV
T1 sequence (O70421 69-642): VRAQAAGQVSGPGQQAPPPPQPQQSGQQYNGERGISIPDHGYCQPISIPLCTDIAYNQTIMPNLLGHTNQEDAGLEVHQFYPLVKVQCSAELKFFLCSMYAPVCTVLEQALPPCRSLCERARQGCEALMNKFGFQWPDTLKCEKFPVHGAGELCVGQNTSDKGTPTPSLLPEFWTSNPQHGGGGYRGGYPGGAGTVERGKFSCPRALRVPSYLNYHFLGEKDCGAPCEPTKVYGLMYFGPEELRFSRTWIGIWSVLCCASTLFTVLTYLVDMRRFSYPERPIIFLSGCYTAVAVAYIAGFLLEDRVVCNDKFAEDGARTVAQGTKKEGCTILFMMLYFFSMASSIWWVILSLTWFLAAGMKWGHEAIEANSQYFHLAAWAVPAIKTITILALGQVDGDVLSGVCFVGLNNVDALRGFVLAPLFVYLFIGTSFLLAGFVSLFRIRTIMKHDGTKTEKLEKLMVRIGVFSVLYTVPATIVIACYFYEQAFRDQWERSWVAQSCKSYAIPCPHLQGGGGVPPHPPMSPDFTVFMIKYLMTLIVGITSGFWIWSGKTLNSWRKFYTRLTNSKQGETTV

CSCC[C@H](NC(=O)CNC(=O)[C@H](CCC(=O)O)NC(=O)[C@H](CO)NC(=O)[C@@H](NC(=O)[C@H](CCCCN)NC(=O)[C@H](CC(N)=O)NC(=O)[C@H](CS)NC(C)=O)[C@@H](C)O)C(=O)N[C@@H](CC(=O)O)C(=O)NCC(=O)N[C@@H](CS)C(=O)N[C@@H](CCC(=O)O)C(=O)N[C@@H](CC(C)C)C(N)=O [UM206, Ac-Cys-Asn-Lys-Thr-Ser-Glu-Gly-Met-Asp-Gly-Cys-Glu-Leu-NH2] (Ac-CNKTSEGMDGCEL-NH2)
Antagonizing activation of mouse Fzd-1 by Wnt3a (mouse Fzd-1): fully effective | Effect on Wnt3a-induced luciferase activity, frizzled-4 (hFzd-4): no effect | influence on the expression patterns in the small intestine (small intestine; UM206 for five weeks): These data indicate that UM206 had no influence on the expression patterns in the small intestine. | Rel. exp. Ascl 2 (small intestine; small intestine): 1.42 | Rel. exp. Axin 2 (small intestine; small intestine): 1.05 | Rel. exp. CD 44 (small intestine; small intestine): 1.22 | Rel. exp. Col I (small intestine; small intestine): 1.32 | Rel. exp. Dvl 2 (small intestine; small intestine): 1.13 | Rel. exp. Inos (small intestine; small intestine): 1.18 | Rel. exp. Itm 2A (small intestine; small intestine): 0.97 | Rel. exp. Mmp 2 (small intestine; small intestine): 1.32 | half-life (Pharmacokinetics in rats): around 90 minutes | effect of UM206 alone on cell migration [1]: no effect | Counteraction of Wnt3a/Wnt5a-induced attenuation of migration ([1]; UM206 1.10^−8 M, Fzd-1 or -2 overexpression): migration was reset to the migration speed of the control; also recorded: blocked completely; also recorded: block this effect completely | Higher affinity for rFzd-2 than for rFzd-1 (frizzled-2 (rFzd-2)): ~100 fold | Selectivity frizzled-2 over frizzled-1 (frizzled-2 (rFzd-2)): slightly more selective for frizzled-2 over frizzled-1 | Blocking of Wnt3a-induced luciferase activity, frizzled-2 (frizzled-2 (rFzd-2); increasing amounts of antagonist): completely and concentration-dependently blocked | Blocking of Wnt3a-induced luciferase activity, rFzd-2 (frizzled-2 (rFzd-2); peptide 1.10^−8 M): blocked almost completely; also recorded: abolished the induction of luciferase activity almost completely | Effect of the antagonist on its own on luciferase activity (frizzled-2 (rFzd-2); without Wnt3a): no effect
